Laboratory results from patent US20110294843A1, “ADMINISTRATION SCHEME OF POLAR OPIOID METABOLITES FOR POST-OPERATIVE PAIN MANAGEMENT” (PAION UK Limited, priority 2008, published 2011).

Tests used:
[1] = system: patients with pain treatment after surgery; experiment: Meta analysis of four clinical studies with M6G pain treatment after surgery
From the text: The four studies M6G001, M6G012, M6G015 and M6G022 are described in the following.
The following variables were included in the meta analysis:
Nausea (none, mild, moderate, severe)
Sedation (none, mild, moderate, severe)
Pain (none, mild, moderate, severe)

[2] = system: patients following major abdominal surgery; experiment: M6G022 study: analgesic efficacy and tolerability of M6G and morphine following major abdominal surgery
Protocol: Pain relief, nausea and emesis were recorded for 24 to 48 hours after start of the patient controlled analgesia.
The study site personnel (with the exception of the pharmacy); representatives of the sponsoring company; and the organisation involved in monitoring, data management, or other aspects of the study were blinded to the study treatment. The use of midazolam, temazepam, zopiclone or other short-acting pre-operative anxiolytics was allowed. All patients received a standardised general anaesthetic consisting of propofol induction, with either isoflurane or sevoflurane maintenance. These inhalational agents are associated with a similar risk of PONV. Nitrous oxide was not allowed because of its emetic effects, and the risk of an imbalance in its use. An initial bolus of 1-3 μg/kg of fentanyl or 0.1-0.3 μg/kg of sufentanyl followed by further doses as required, was used for pre- and peri-operative analgesia. Post-operative analgesia was provided by the study drug.
The investigator could administer up to 5 ml of PCA study drug, on no more than two occasions in each 24 hour post-operative period, as rescue medication if the patient was in uncontrolled pain. […] The patients stayed on PCA for a minimum of 24 hours following surgery, but could continue up to 48 hours if clinically indicated.
No prophylactic antiemetic was given, although iv ondansetron (4 mg/2 ml) was available if the patient experienced severe nausea, or immediately following emesis. If this was ineffective further doses of ondansetron; or other agents such as cyclizine, prochlorperazine or perphenazine; were allowed.
Pain intensity at rest was assessed by the patients using the VRS-11 scale at baseline, 15, 30 and 45 minutes and 1, 2, 4, 6, 9, 12, 15, 18, 21 and 24 hours after the start of PCA. A numerical scale was chosen because of the practical difficulty for post-operative patients of completing a visual analogue scale. If the patient remained on PCA after 24 hours, the pain scores were recorded every 8 hours up to 48 hours. In addition, at the end of the study the patients and observers were asked to assess the acceptability of their pain relief over the entire study using a 5 point rating global scale ranging from very poor (1) to excellent (5). […] The total consumption of study drugs was calculated.
Emesis risk factors of female gender; history of motion sickness or PONV; or smoking status were recorded at screening. Post-operative nausea was assessed by the patient using a 4 point ordinal scale (none, mild, moderate, severe) and occurrence of vomiting or dry retching recorded (yes/no; and if yes, the number of episodes) pre-operatively (Day −1), at baseline, and at 1, 2, 4, 6, 9, 12, 15, 18, 21, 24, 32, 40 and 48 hours after administration of the test analgesic. Nausea and vomiting were also combined in a single scoring system (postoperative nausea & vomiting, PONV), with an episode of vomiting or dry retching being scored as a 3 (severe) on the nausea scale.
Sedation was assessed using a combination of a binary question (sleepy, yes or no) and a 3 point ordinal scale (mild, moderate, severe) if the patient was sedated. All adverse events were recorded, along with concomitant medication use, with particular attention being paid to the use of anti-emetics.
The Intention to Treat (ITT) set of patients comprised all those who had been exposed to study medication at least once. This analysis set was the basis for the main efficacy and all safety and demographic analyses. Data were double entered using interactive verification into a CLINTRIAL database (Version 3.3.3, Phase Forward, Waltham, Mass., USA), and analysed using SAS (version 8.2, SAS Institute Inc., Cary, N.C., USA).

CN1CC[C@]23c4c5ccc(O)c4O[C@H]2[C@@H](O)C=C[C@H]3[C@H]1C5 [Morphine, morphine]
pain-free time ([1]; during first 24 hours): 9.0 to 10.9 h | patients with moderate to severe sedation ([1]; human, in vivo, intravenous): 81.4% | patients with moderate to severe pain ([1]; time window 0 to 6 hours): 54.2% | patients with moderate to severe pain ([1]; time window 6-24 hours): 34.0% | patients with moderate to severe nausea ([1]; worst assessment): 32.8% | patients with vomiting ([1]; worst assessment): 36.5% | mean totals of PCA demands ([2]; 4-48 h): 93.9 | patients with sedation score recorded as severe ([2]; baseline): 28.5% | patients sedated ([2]; baseline (when given control of the PCA button)): 88.0% | mean totals of PCA demands ([2]; early post-operative period (up to 4 hours)): 28.8 | dose required to achieve comfort initially ([2]; loading and recovery doses before PCA): 14.4 mg/70 kg
